Results published in patent US20240391958A1, “KEANUMYCINS AND USES THEREOF IN MEDICINE AND PLANT PROTECTION” (Leibniz-Institut für Naturstoff-Forschung und …, priority 2023, published 2024).
Values after ≈ are worked out from the molar mass of the structure shown. Like-named read-outs stand apart in the source and are kept apart here. Where a SMILES comes first, the peptide text is derived from it. Bridges are numbered along the chain shown (N, C = ends). [ ]: non-standard residue; d: D form. The star is where a group is joined. Decanoyl(3R-OH) = CCCCCCC[C@@H](O)CC(=O)*; d(aThr) = C[C@@H](O)[C@@H](N)C(=O)O; Dab = NCC[C@H](N)C(=O)O; Dhb = C/C=C(\N)C(=O)O

Assays:
[1] = system: C. albicans; experiment: Membrane permeabilization assay using SYTOX Green; format: cell-based, Candida albicans; details: 4 μg mL-1 in 1% DMSO
Description: Only isolated cells are stained, which can be explained by the fact that the dye can also be used to distinguish dead from live cells. Scale bar=100 μm.
To finally examine if keanumycin A is a membrane-active compound, the inventors performed a membrane permeabilization assay using SYTOX Green (FIG. 6). As a cell-impermeant dye, SYTOX Green enters the cell upon loss of membrane integrity and binds to DNA, which results in fluorescently stained cells. […] Thus, the keanumycins are membrane-active compounds that disturb the structure of the fungal […].

[2] = system: Sporobolomyces salmonicolor; experiment: Disk diffusion test; format: cell-based; details: 10 μg/mL in DMSO/MeOH, 50 μL per 9 mm hole, 24 h 37 °C; methanol alone 10 mm
Procedure: (§1) A qualitative screen of different microorganisms was performed using a disk diffusion test. Each microorganism was plated on Mueller Hinton agar plates and 9 mm holes were punched out. The respective compounds were dissolved in the indicated solvent to yield solutions of specified concentrations. 50 μL of the respective solutions were placed in each hole. The plates were incubated for 24 h at 37° C. After incubation, the size of inhibition zones was determined.

[3] = system: Candida albicans; experiment: Disk diffusion test; format: cell-based; details: 10 μg/mL in DMSO/MeOH, 50 μL per 9 mm hole, 24 h 37 °C
Procedure: as §1

[4] = system: Penicillium notatum; experiment: Disk diffusion test; format: cell-based; details: 10 μg/mL in DMSO/MeOH, 50 μL per 9 mm hole, 24 h 37 °C; methanol alone 10 mm
Procedure: as §1

[5] = system: Botrytis cinerea SF011406; experiment: Broth dilution method (NCCLS); format: cell-based
Procedure: (§2) The activity assay was performed using the broth dilution method according to the EUCAST DEFINITIVE DOCUMENT E.DEF 9.3.2. B. cinerea and A. solani were incubated according to the Methods for dilution antimicrobial susceptibility tests for bacteria that grow aerobically by the NCCLS. Keanumycin A was dissolved in DMSO.

[6] = Stability of isolated keanumycin C; format: physicochemical; details: in solution or concentrated to dryness
Description: The inventors isolated keanumycin A (m/z 583.7892 [M+2H]2+ consistent with the molecular formula C49H84ClN11O19) and impure keanumycin B (m/z 575.7900 [M+2H]2+; C49H84ClN11O18), which could not be separated from an unknown metabolite (FIG. 1A). The inventors were also able to isolate keanumycin C (m/z 591.7866 [M+2H]2+; C49H84ClN11O20). […] Therefore, a detailed NMR analysis was only performed on keanumycin A. Important correlations in the ^1H, ^1H-correlation spectroscopy (COSY) experiment disclosed the presence of a 3,4-dihydroxylated linear fatty acid, which is a rare motif in NRLPs and only described for two other members of the syringomycin family (FIG. 2A). […] Saponification of keanumycin A under mild conditions led to the expected dechlorinated and linear lipopeptide 1, whose planar structure was confirmed by further HRMS2 experiments.

[7] = system: Candida auris 2021-353; experiment: Broth dilution method (EUCAST); format: cell-based; details: Candidozyma auris, 2021353; Candida auris 2021-353, EUCAST E.DEF 9.3.2; read-out: Result of the broth dilution method assay (MIC)
Procedure: as §2

[8] = system: Candida tropicalis 2021-360; experiment: Broth dilution method (EUCAST); format: cell-based; details: 2021360; Candida tropicalis 2021-360, EUCAST E.DEF 9.3.2; read-out: Result of the broth dilution method assay (MIC)
Procedure: as §2

[9] = system: Candida parapsilosis ATCC 22019; experiment: Broth dilution method (EUCAST); format: cell-based; details: Lodderomyces parapsilosis, ATCC22019; Candida parapsilosis ATCC 22019, EUCAST E.DEF 9.3.2; read-out: Result of the broth dilution method assay (MIC)
Procedure: as §2

[10] = system: Candida glabrata 2021-359; experiment: Broth dilution method (EUCAST); format: cell-based; details: Nakaseomyces glabratus, 2021359; Candida glabrata 2021-359, EUCAST E.DEF 9.3.2; read-out: Result of the broth dilution method assay (MIC)
Procedure: as §2

[11] = system: Candida strains; details: against Candida strains; cited from earlier work
[12] = system: Scedosporium apiospermum 2016-079; experiment: Broth dilution method (EUCAST); format: cell-based; details: 2016079; Scedosporium apiospermum 2016-079, EUCAST E.DEF 9.3.2; read-out: Result of the broth dilution method assay (MIC)
Procedure: as §2

[13] = system: Aspergillus fumigatus ATCC 204305; experiment: Broth dilution method (EUCAST); format: cell-based; details: ATCC204305; Aspergillus fumigatus ATCC 204305, EUCAST E.DEF 9.3.2; read-out: Result of the broth dilution method assay (MIC)
Procedure: as §2

[14] = system: Fusarium proliferatum 2021-361; experiment: Broth dilution method (EUCAST); format: cell-based; details: 2021361; Fusarium proliferatum 2021-361, EUCAST E.DEF 9.3.2; read-out: Result of the broth dilution method assay (MIC)
Procedure: as §2

[15] = system: Rhizopus arrhizus 2021-366; experiment: Broth dilution method (EUCAST); format: cell-based; details: 2021366; Rhizopus arrhizus 2021-366, EUCAST E.DEF 9.3.2; read-out: Result of the broth dilution method assay (MIC)
Procedure: as §2

[16] = system: Staphylococcus aureus (MRSA) 134/94; experiment: Disk diffusion test; format: cell-based; details: 5 μg/mL in water, 50 μL per 9 mm hole, 24 h 37 °C
Procedure: as §1

[17] = system: Pseudomonas aeruginosa K799/61; experiment: Disk diffusion test; format: cell-based; details: 5 μg/mL in water, 50 μL per 9 mm hole, 24 h 37 °C
Procedure: as §1

[18] = system: Bacillus subtilis; experiment: Disk diffusion test; format: cell-based; details: 5 μg/mL in water, 50 μL per 9 mm hole, 24 h 37 °C
Procedure: as §1

[19] = system: Mycobacterium vaccae; experiment: Disk diffusion test; format: cell-based; details: 5 μg/mL in water, 50 μL per 9 mm hole, 24 h 37 °C
Procedure: as §1

[20] = system: Pseudomonas aeruginosa SG 137; experiment: Disk diffusion test; format: cell-based; details: 5 μg/mL in water, 50 μL per 9 mm hole, 24 h 37 °C
Procedure: as §1

[21] = system: Escherichia coli; experiment: Disk diffusion test; format: cell-based; details: 5 μg/mL in water, 50 μL per 9 mm hole, 24 h 37 °C
Procedure: as §1

[22] = system: Enterococcus faecalis (VRE) 1528; experiment: Disk diffusion test; format: cell-based; details: 5 μg/mL in water, 50 μL per 9 mm hole, 24 h 37 °C
Procedure: as §1

[23] = system: Staphylococcus aureus SG 511; experiment: Disk diffusion test; format: cell-based; details: 5 μg/mL in water, 50 μL per 9 mm hole, 24 h 37 °C
Procedure: as §1

tunicamycin [reference compound]
membrane permeabilization (SYTOX Green staining) [1]: membrane integrity of C. albicans is not disturbed | membrane permeabilization (SYTOX Green staining) ([1]; listed as Tunicamycin): did not cause a loss of membrane integrity

C[C@@H]1[C@H](O)[C@@H](C)/C=C/C=C/C=C/C=C/C=C/C=C/C=C/[C@H](O[C@@H]2O[C@H](C)[C@@H](O)[C@H](N)[C@@H]2O)C[C@@H]2O[C@](O)(C[C@@H](O)C[C@@H](O)[C@H](O)CC[C@@H](O)C[C@@H](O)CC(=O)O[C@H]1C)C[C@H](O)[C@H]2C(=O)O [Amphotericin B, reference compound]
Inhibition area diameter [2]: 18 mm | Inhibition area diameter [3]: 21 mm | Inhibition area diameter [4]: 18 mm

C/C=C(\NC(=O)[C@@H](CC(C)C)NC(=O)[C@@H](C)NC(=O)[C@H](NC(=O)[C@@H](C)NC(=O)[C@@H](CO)NC(=O)[C@H](NC(=O)[C@H](C)NC(=O)[C@@H](C)NC(=O)[C@@H](C)NC(=O)[C@H](NC(=O)[C@H](NC(=O)[C@H]1CCCN1C(=O)/C(=C/C)NC(=O)C[C@H](O)CCCCCCC)[C@H](C)CC)C(C)C)C(C)C)C(C)C)C(=O)N[C@H]1C(=O)N[C@@H](C)C(=O)N[C@@H](CCN)C(=O)N[C@H](CO)C(=O)N[C@@H](Cc2ccccc2)C(=O)O[C@@H]1C [jessenipeptin, reference compound] ({Decanoyl(3R-OH)}-[Dhb][dP][dI][dV][dA][dA]A[dV][dS][dA][dV][dA][dL][Dhb][d(aThr)]A[Dab][dS]F; ester 15-C)
MIC ([5]; B. cinerea): 10 µg/mL | MIC ([5]; Botrytis cinerea, NCCLS, 22 °C, read-out: MIC): 5.2 µM

keanumycin C
stability [6]: slowly degrades in solution or when concentrated to dryness

OC(Cn1cncn1)(Cn1cncn1)c1ccc(F)cc1F [Fluconazol, reference compound]
MIC [7]: < 64 µg/mL | MIC [8]: 64 µg/mL (≈ 209 µM) | MIC [9]: 2 µg/mL (≈ 6.53 µM) | MIC [10]: 2 µg/mL (≈ 6.53 µM)

hassallidin D
IC50 [11]: 290 to 1000 nM

CC[C@@H]([C@H](C)O)n1ncn(-c2ccc(N3CCN(c4ccc(OC[C@@H]5CO[C@@](Cn6cncn6)(c6ccc(F)cc6F)C5)cc4)CC3)cc2)c1=O [Posaconazol, reference compound]
MIC [7]: 0.06 µg/mL (≈ 0.0856 µM) | MIC [12]: > 8 µg/mL | MIC [13]: 0.125 µg/mL (≈ 0.178 µM) | MIC [8]: 0.125 µg/mL (≈ 0.178 µM) | MIC [9]: 0.06 µg/mL (≈ 0.0856 µM) | MIC [10]: 0.25 µg/mL (≈ 0.357 µM) | MIC [14]: > 8 µg/mL | MIC [15]: 4 µg/mL (≈ 5.71 µM)

O=C(O)c1cn(C2CC2)c2cc(N3CCNCC3)c(F)cc2c1=O [Ciprofloxacin, reference compound]
Inhibition area diameter [16]: 0 mm | Inhibition area diameter [17]: 28 mm | Inhibition area diameter [18]: 29 mm | Inhibition area diameter [19]: 22 mm | Inhibition area diameter [20]: 26 mm | Inhibition area diameter [21]: 26 mm | Inhibition area diameter [22]: 16 mm | Inhibition area diameter [23]: 17 mm

C[C@@H](c1ncncc1F)[C@](O)(Cn1cncn1)c1ccc(F)cc1F [Voriconazol, reference compound]
MIC [7]: 1 µg/mL (≈ 2.86 µM) | MIC [12]: 1 µg/mL (≈ 2.86 µM) | MIC [13]: 0.5 µg/mL (≈ 1.43 µM) | MIC [8]: 1 µg/mL (≈ 2.86 µM) | MIC [9]: 0.03 µg/mL (≈ 0.0859 µM) | MIC [10]: 0.06 µg/mL (≈ 0.172 µM) | MIC [14]: 8 µg/mL (≈ 22.9 µM) | MIC [15]: > 8 µg/mL
